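96-well plates; 48 h exposure; 5 concentrations. Endpoints by linear interpolation between flanking doses. Not reached: highest tested concentration assigned. TGI denotes the concentration required for complete inhibition of growth.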
Key:
Assay in all cases: NCI-60 cell line screen, 48 h
786-0 renal = system: 786-0 renal
A549 NSCLC = system: A549 NSCLC
COLO 205 colon = system: COLO 205 colon
DLD-1 colon = system: DLD-1 colon
HCT-116 colon = system: HCT-116 colon
KM12 colon = system: KM12 colon
LOX IMVI melanoma = system: LOX IMVI melanoma
M14 melanoma = system: M14 melanoma
MOLT-4 leukemia = system: MOLT-4 leukemia
NCI-H460 lung = system: NCI-H460 lung
SF-295 CNS = system: SF-295 CNS
TK-10 renal = system: TK-10 renal
UACC-62 melanoma = system: UACC-62 melanoma
HCT-15 colon = system: HCT-15 colon
SN12C renal = system: SN12C renal
SNB-19 CNS = system: SNB-19 CNS
BT-549 breast = system: BT-549 breast
HS 578T breast = system: HS 578T breast
MDA-N = system: MDA-N
SR leukemia = system: SR leukemia

Row | SMILES | TGI (786-0 renal) [µM] | TGI (A549 NSCLC) [µM] | TGI (COLO 205 colon) [µM] | TGI (DLD-1 colon) [µM] | TGI (HCT-116 colon) [µM] | TGI (KM12 colon) [µM] | TGI (LOX IMVI melanoma) [µM] | TGI (M14 melanoma) [µM] | TGI (MOLT-4 leukemia) [µM] | TGI (NCI-H460 lung) [µM] | TGI (SF-295 CNS) [µM] | TGI (TK-10 renal) [µM] | TGI (UACC-62 melanoma) [µM] | TGI (HCT-15 colon) [µM] | TGI (SN12C renal) [µM] | TGI (SNB-19 CNS) [µM] | TGI (BT-549 breast) [µM] | TGI (HS 578T breast) [µM] | TGI (MDA-N) [µM] | TGI (SR leukemia) [µM]
1 | C/C(CC(=O)Nc1cc(C)ccc1C)=N/N=C(N)N | > 100 | > 100 | > 100 | > 100 | > 100 | > 100 | > 100 | > 100 | > 100 | > 100 | > 100 | > 100 | > 100 | – | – | – | – | – | – | –
2 | CCOP12(OCC)NC(=O)OC1(C(F)(F)F)c1ccccc1O2 (stereo unspecified) | > 100 | > 100 | – | > 100 | > 100 | > 100 | > 100 | > 100 | > 100 | > 100 | > 100 | > 100 | > 100 | > 100 | > 100 | > 100 | – | – | – | –
3 | N#Cc1cc([N+](=O)[O-])ccc1NC(=O)/C(=N\NC(=O)c1ccncc1)C(c1cnc2ccc([N+](=O)[O-])cc2n1)[N+](=O)[O-] (stereo unspecified) | 6.16 | 15.8 | 17.9 | – | 7.33 | 7.53 | 2.23 | 3.23 | 22.9 | 8.17 | 4 | 28.3 | 2.96 | 5.22 | 3.71 | 8.16 | 3.55 | 6.23 | 1.26 | 46.8
4 | Cn1c(=O)c2c(nc3sc4c(n32)C(=O)c2c(O)ccc(O)c2C4=O)n(C)c1=O | 4.37 | 59.6 | 12.1 | – | 4.68 | 11.6 | 2.75 | 6.48 | 5.08 | > 59.4 | > 100 | 15.2 | 8.5 | 4.72 | 3.93 | > 91.5 | 17.7 | 64.1 | 4.1 | 3.23
5 | COC(=O)C1=C(OC(=O)/C(=C/c2ccccc2)c2ccc(Cl)cc2)C(C(=O)OC)[C@@]2(O)[C@@H](C(=O)OC)[C@H](C)C[C@@H]1[C@@H]2C(=O)OC (stereo partly specified) | > 100 | > 100 | > 100 | – | > 100 | > 100 | > 100 | > 100 | > 100 | > 100 | > 100 | > 100 | > 100 | > 100 | > 100 | > 100 | > 100 | > 100 | > 100 | > 100
6 | OC[P+](CO)(CO)C12CC3CC(CC(C3)C1)C2 | > 26 | > 100 | > 100 | – | > 100 | > 100 | > 29.8 | > 100 | > 80.9 | > 100 | > 100 | > 100 | > 100 | > 100 | > 100 | > 100 | > 100 | > 100 | > 100 | > 82
7 | CCN(CC)C1CCC(C2c3cc4c(cc3OC(N3CCOCC3)C2C)OCO4)CC1 (stereo unspecified) | > 100 | > 100 | > 100 | – | > 100 | > 100 | > 100 | > 69.3 | > 68.2 | > 100 | > 100 | > 100 | > 100 | > 100 | > 100 | > 100 | 84.1 | > 72.1 | 38 | > 100
8 | Cc1ccc([N+](=O)[O-])cc1S(=O)(=O)Nc1ccc(C2=NOC(c3cccs3)C2)cc1 (stereo unspecified) | 37.7 | 67.2 | > 100 | – | 28.1 | 29.1 | 23.6 | 20.8 | 22.3 | 28.8 | 44.1 | 50.3 | 17.8 | 28.5 | 53.3 | 53.1 | 41 | 83 | 10.4 | 11.5
9 | C=CCN1C[C@H](C)N([C@@H](c2ccc(C(=O)N3CCCCC3)cc2)c2cccc(OC)c2)C[C@H]1C | > 100 | > 100 | 30.6 | – | > 100 | > 100 | > 100 | 34.9 | > 100 | > 100 | > 100 | > 100 | 64.8 | > 100 | > 100 | > 100 | > 100 | > 100 | > 100 | 35.4
10 | NC(=O)c1cccc(N=c2oc3ccc(Br)cc3cc2-c2nc3ccccc3[nH]2)c1 | 31.4 | 26.4 | 35.8 | – | 33.3 | 49 | 37.5 | 32.3 | 43.4 | 43.6 | 30.8 | 30.7 | 28.5 | 32.1 | 34.4 | 28.5 | 30.4 | 74.5 | 38.1 | > 100
11 | Nc1ccc(Oc2ccc(C3(c4ccc(Oc5ccc(N)cc5)cc4)C4CC5CC(C4)CC3C5)cc2)cc1 | 19.1 | 42.2 | > 100 | – | 13.7 | 17.7 | > 28.4 | 17 | > 100 | > 100 | 73.8 | > 92.4 | 49.1 | 35.7 | 21.9 | > 100 | > 49.2 | > 100 | 40.4 | 20.3
12 | C=CCN1COc2c(cc3c4c(cccc24)C(=O)O3)C1 | 39.1 | > 100 | 33.1 | 66.2 | 36.7 | > 100 | > 10 | 50.1 | 64.9 | > 100 | > 100 | 39 | 36.8 | 50 | 35.5 | > 100 | – | – | – | –
13 | O=C1NC(=O)C(C(=O)C(=O)Nc2ccc(Cl)cc2Cl)C(=O)N1 | > 100 | > 100 | > 100 | > 100 | > 100 | > 100 | – | > 100 | > 100 | > 100 | > 100 | > 100 | > 100 | > 100 | – | > 100 | – | – | – | –
14 | O=c1c2ccccc2nc2n1-c1ccccc1SC2 | > 100 | > 100 | > 100 | > 100 | > 100 | > 100 | > 100 | > 100 | 75.3 | > 100 | > 100 | > 100 | > 100 | > 100 | > 100 | > 100 | – | – | – | –
15 | CC1(C)CC(=O)C2=C(C1)NC1=C(C2)C(=O)CC(C)(C)C1 | > 100 | > 100 | > 100 | – | > 100 | > 100 | > 100 | > 100 | > 100 | > 100 | > 100 | > 100 | > 100 | > 100 | > 100 | > 100 | > 100 | > 100 | > 100 | > 100
16 | C#C/C=C\CCCCCCCCCCCCCC/C=C\CCCCC#CC(O)C#CCCCC/C=C\CCCCCC/C=C/C(O)C#C (stereo unspecified) | 26.7 | 37.1 | 35.6 | – | > 32.8 | 20.1 | 8.75 | > 38.3 | > 68 | > 75 | > 55.6 | > 49 | 36.8 | > 62.3 | > 75 | > 75 | > 75 | > 75 | 24.2 | > 60.8
17 | COC(=O)C1=C(OC(=O)c2ccccc2)C(C(=O)OC)[C@@]2(O)[C@@H](C(=O)OC)[C@H](C)C[C@@H]1[C@@H]2C(=O)OC (stereo partly specified) | > 100 | 71.6 | 41.1 | – | > 100 | > 100 | > 100 | > 100 | > 100 | > 100 | > 100 | > 100 | > 100 | > 100 | > 100 | > 100 | 78.1 | > 100 | 63.5 | > 100
18 | Clc1ccc(CCn2cncn2)cc1 | > 100 | > 100 | > 100 | > 100 | > 100 | > 100 | > 100 | > 100 | > 100 | > 100 | > 100 | > 100 | > 100 | > 100 | > 100 | – | – | – | – | > 100
19 | NC(=O)c1ncn(C2OC(CO)C(O)C2O)c1NC=O (stereo unspecified) | > 100 | > 100 | > 100 | – | > 100 | > 100 | > 100 | > 100 | > 100 | > 100 | > 100 | > 100 | > 100 | > 100 | > 100 | > 100 | > 100 | > 100 | > 100 | > 100
20 | O=C1C=CC2(C=C1)CCNC1=C2C(=O)c2ccccc2C1=O | > 100 | > 100 | > 100 | > 100 | > 100 | > 100 | > 100 | > 100 | > 100 | > 100 | > 100 | > 100 | > 100 | > 100 | > 100 | – | – | – | – | –
21 | Cc1occc1C(=S)Nc1ccc(Cl)c(/C=N/OC(C)(C)C)c1 | 49.9 | 38.6 | 34.1 | – | 27 | 32.3 | 29.2 | 40.9 | 31.8 | 29.7 | 28.5 | 49.8 | 28 | 31.2 | 31.8 | 40.6 | 32.2 | 51.6 | 37 | 35.6
22 | Cc1ccc(C(c2c(O)c3ccccc3n(-c3ccccc3)c2=O)c2c(O)c3ccccc3n(-c3ccccc3)c2=O)cc1 | > 100 | > 100 | > 100 | > 100 | > 100 | > 100 | > 100 | – | > 100 | – | – | > 100 | – | > 100 | > 100 | > 100 | – | – | – | > 100
23 | COc1ccc(-c2c3c(n(C4OC(COC(C)=O)C(OC(C)=O)C(OC(C)=O)C4OC(C)=O)c(=S)c2C#N)CCC3)cc1 (stereo unspecified) | > 100 | > 100 | > 100 | – | > 100 | > 100 | > 100 | > 100 | > 100 | > 100 | > 100 | > 100 | > 100 | > 100 | > 100 | > 100 | > 100 | > 100 | > 100 | > 100
24 | O=C(O)c1cc(=O)c2c(OCC(O)COc3cccc4oc(C(=O)O)cc(=O)c34)cccc2o1 | > 100 | > 100 | > 100 | – | > 100 | > 100 | > 100 | > 100 | > 100 | > 100 | > 100 | > 100 | > 100 | > 100 | > 100 | > 100 | > 100 | > 100 | > 100 | > 100
25 | O=C(/C=C/c1ccc(C(F)(F)F)cc1)c1c([O-])on[n+]1-c1ccccc1 | 1.71 | 12.3 | 4.91 | – | 3.85 | 7.1 | 1.56 | 6.6 | 2.04 | 6.44 | 20.2 | 3.07 | 2.81 | 3.12 | 7.71 | 15.5 | 3.04 | > 32.3 | 8.69 | 0.846

Reference: PubChem BioAssay (NCI)
